These are literature values, as cited in patent publication US10105334B2, “Particle formulations of all-trans retinoic acid and transforming growth factor beta for the treatment of type 1 diabetes mellitus” (University of Pittsburgh—Of the Commonwealth System of …, priority 2014, dated 2018).

For the data set the following is noted: Tsang et al., Cytokine 7:389-97 (1995).

Consider “TGFβ: growth factor and immunomodulatory cytokine”, for which the “ED50 (physiologically-active concentration)” value is 0.04-0.2 ng/mL.
